Read-outs that look alike come from different tables or passages of the source.
How the values were obtained:
[1] = Exploratory trial: plasma concentration of rikkunshito ingredients after single oral rikkunshito 7.5 g; format: in vivo
Summary of the method: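 Plasma and urine levels were measured by LC–MS/MS after one 7.5 g oral dose of rikkunshito. Samples were collected before dosing and at 0.5–8 h for blood, or in 0–4 h and 4–8 h fractions for urine. Synephrine was determined after protein-removal plate cleanup; the other ingredients after β-glucuronidase deconjugation (2 h, 37°C) and SPE.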

[2] = Stability of ingredients in gastric pH solution (pH 1.2, 37°C); format: physicochemical; conditions: pH 1.2
Experimental: Rikkunshito gradually dissolved in acidic solution (pH 1.2) at 37°C, and the concentration of atractylodin after adding 0.25, 0.5, 1, and 2 h was measured by gas chromatography–mass spectrometry.

[3] = cited from earlier work
[4] = Method validation: stability in blood
[5] = Method validation: long-term stability in plasma
[6] = Method validation: short-term stability in plasma
[7] = Method validation: freeze-thaw stability in plasma
[8] = Method validation: post-preparative stability (autosampler)
[9] = Method validation: stability in standard, stock and working solution
[10] = Dose proportionality (linearity) test by power model for C max and AUC0-last; conditions: for Dose proportionality test using power model, Inference: linear when 90% CI of β included 1, CIlower ≥0.8, and CIupper ≤1.25; for Dose proportionality test using power model, β: rikkunshito 2.5, 5.0 or 7.5 g
Experimental: The dose proportionality was analyzed via a power model [21, 22]. […] Evaluation of linearity of the dosage-exposure relationship was conducted with Phoenix WinNonlin and SAS 9.2 (SAS Institute, Inc., Cary, NC).

## O=C1C[C@@H](c2ccc(O)cc2)Oc2cc(O)cc(O)c21 [Naringenin]
[1]; human, in vivo, po
  concentration at 0 h: 0.378 ± 0.755 ng/mL
  concentration at 0.5 h: 0.0358 ± 0.0715 ng/mL
  concentration at 2 h: 0.0813 ± 0.105 ng/mL
  concentration at 4 h: 0.0715 ± 0.0831 ng/mL
[1]; in vivo, po
  Plasma concentration, 1 h: BQL
  Plasma concentration, 8 h: BQL
[2]; 0.5 h
  Stability in gastric pH solution, Quantitative value: 2030 ng/mL
[2]; 1 h
  Stability in gastric pH solution, Quantitative value: 2140 ng/mL
[2]; 2 h
  Stability in gastric pH solution, Quantitative value: 1990 ng/mL
[3]; 7.5 g dosage
  Maximum plasma concentration in the preliminary pharmacokinetics study: 0.162 ± 0.0392 ng/mL
[4]; on ice 2 h, higher concentration (800 / 320 / 4000 pg/mL)
  Stability in blood, RR: 98.1%
[4]; on ice 2 h, lower concentration (20 / 8 / 100 pg/mL)
  Stability in blood, RR: 95.8%
[5]; naringenin 100 pg/mL, freezer −30°C to −10°C, 22 days
  Long-term stability, RR: 101.9%
[5]; naringenin 100 pg/mL, freezer, 31 days
  Long-term stability, RR: 98.1%
[5]; naringenin 100 pg/mL, freezer, 220 days
  Long-term stability, RR: 86.8%
[5]; naringenin 4000 pg/mL, freezer, 22 days
  Long-term stability, RR: 95.8%
[5]; naringenin 4000 pg/mL, freezer, 31 days
  Long-term stability, RR: 95.8%
[5]; naringenin 4000 pg/mL, freezer, 220 days
  Long-term stability, RR: 85.2%
[6]; naringenin 100 pg/mL, room temperature, 24 h as printed in the cell
  Short-term stability, RR: 113.8%
[6]; naringenin 4000 pg/mL, room temperature, 24 h as printed in the cell
  Short-term stability, RR: 112.2%
[6]; room temperature (1°C to 30°C) 4 h, higher concentration (800 / 320 / 4000 pg/mL)
  Short-term stability, RR: 92.8%
[6]; room temperature (1°C to 30°C) 4 h, lower concentration (20 / 8 / 100 pg/mL)
  Short-term stability, RR: 102.1%
[7]; −30°C to −10°C, 3 cycles, higher concentration (800 / 320 / 4000 pg/mL)
  Freeze-thaw stability, RR: 96.7%
[7]; −30°C to −10°C, 3 cycles, lower concentration (20 / 8 / 100 pg/mL)
  Freeze-thaw stability, RR: 90.6%
[8]; autosampler set at 4°C, 48 h, higher concentration (800 / 320 / 4000 pg/mL)
  Post-preparative stability, RR: 87.1%
[8]; autosampler set at 4°C, 48 h, lower concentration (20 / 8 / 100 pg/mL)
  Post-preparative stability, RR: 85.6%
[8]; naringenin 100 pg/mL, autosampler set at 4°C, 25 h as printed in the cell
  Post-preparative stability, RR: 91.7%
[8]; naringenin 4000 pg/mL, autosampler set at 4°C, 25 h as printed in the cell
  Post-preparative stability, RR: 96.7%
[9]; refrigerator 128 days, higher concentration (10 / 4 / 50 ng/mL)
  Working solution stability, RR: 99.8%
[9]; refrigerator 128 days, lower concentration (0.1 / 0.04 / 0.5 ng/mL)
  Working solution stability, RR: 102.6%
[9]; refrigerator (1°C to 8°C) 54 days, 0.1 mg/mL (naringenin 0.5 mg/mL)
  Stock solution stability, RR: 54 days: 97.5%
[9]; refrigerator (1°C to 8°C) 129 days, 0.1 mg/mL (naringenin 0.5 mg/mL)
  Stock solution stability, RR: 129 days: 96.7%
[10]; AUC0-last
  Dose proportionality test using power model, Inference: Nonlinear
  Dose proportionality test using power model, β: 1.02
[10]; Cmax
  Dose proportionality test using power model, Inference: Nonlinear
  Dose proportionality test using power model, β: 1.06

## COc1ccc(-c2cc(=O)c3c(OC)c(OC)c(OC)c(OC)c3o2)cc1OC [Nobiletin]
[1]; 0 h (preadministration), single oral rikkunshito 7.5 g, mean ± S.D., n = 4
  Plasma concentration, 0 h: BQL
[1]; 0.5 h after single oral rikkunshito 7.5 g, mean ± S.D., n = 4
  Plasma concentration, 0.5 h: 0.047 ± 0.0474 ng/mL
[1]; 1 h after single oral rikkunshito 7.5 g, mean ± S.D., n = 4
  Plasma concentration, 1 h: 0.0282 ± 0.0389 ng/mL
[1]; 2 h after single oral rikkunshito 7.5 g, mean ± S.D., n = 4
  Plasma concentration, 2 h: 0.00545 ± 0.0109 ng/mL
[1]; 4 h after single oral rikkunshito 7.5 g, mean ± S.D., n = 4
  Plasma concentration, 4 h: BQL
[1]; 8 h after single oral rikkunshito 7.5 g, mean ± S.D., n = 4
  Plasma concentration, 8 h: BQL
[2]; 0.5 h
  Stability in gastric pH solution, Quantitative value: 18.1 ng/mL
[2]; 1 h
  Stability in gastric pH solution, Quantitative value: 21.5 ng/mL
[2]; 2 h
  Stability in gastric pH solution, Quantitative value: 19.6 ng/mL
[3]; in vivo
  Maximum plasma concentration in the preliminary pharmacokinetics study: 0.0626 ± 0.0436 ng/mL
[4]; 8 pg/mL, at room temperature for 2 h
  Stability in blood, RR: 86.3%
[4]; 8 pg/mL, on ice for 2 h
  Stability in blood, RR: 91.7%
[4]; 320 pg/mL, at room temperature for 2 h
  Stability in blood, RR: 99.2%
[4]; 320 pg/mL, on ice for 2 h
  Stability in blood, RR: 91.3%
[5]; 8 pg/mL, freezer (−30°C to −10°C) for 13 days
  Long-term stability, RR: 91.2%
[5]; 8 pg/mL, freezer (−30°C to −10°C) for 39 days
  Long-term stability, RR: 88.0%
[5]; 8 pg/mL, freezer (−30°C to −10°C) for 228 days
  Long-term stability, RR: 89.9%
[5]; 320 pg/mL, freezer (−30°C to −10°C) for 13 days
  Long-term stability, RR: 114.0%
[5]; 320 pg/mL, freezer (−30°C to −10°C) for 39 days
  Long-term stability, RR: 114.3%
[5]; 320 pg/mL, freezer (−30°C to −10°C) for 228 days
  Long-term stability, RR: 103.2%
[6]; 8 pg/mL, at room temperature for 4 h
  Short-term stability, RR: 106.5%
[6]; 8 pg/mL, at room temperature for 25 h
  Short-term stability, RR: 114.3%
[6]; 320 pg/mL, at room temperature for 4 h
  Short-term stability, RR: 109.7%
[6]; 320 pg/mL, at room temperature for 25 h
  Short-term stability, RR: 92.5%
[7]; 8 pg/mL, deep freezer (−30°C to −10°C), after 3 cycles of freeze-thaw
  Freeze-thaw stability, RR: 86.0%
[7]; 320 pg/mL, deep freezer (−30°C to −10°C), after 3 cycles of freeze-thaw
  Freeze-thaw stability, RR: 107.9%
[8]; 8 pg/mL, autosampler set at 4°C for 24 h
  Post-preparative stability, RR: 89.5%
[8]; 8 pg/mL, autosampler set at 4°C for 48 h
  Post-preparative stability, RR: 87.7%
[8]; 320 pg/mL, autosampler set at 4°C for 24 h
  Post-preparative stability, RR: 88.0%
[8]; 320 pg/mL, autosampler set at 4°C for 48 h
  Post-preparative stability, RR: 89.7%
[9]; 0.04 ng/mL, refrigerator (1°C to 8°C) for 53 days
  Working solution stability, RR: 95.0%
[9]; 0.04 ng/mL, refrigerator (1°C to 8°C) for 128 days
  Working solution stability, RR: 89.0%
[9]; 4 ng/mL, refrigerator (1°C to 8°C) for 53 days
  Working solution stability, RR: 102.6%
[9]; 4 ng/mL, refrigerator (1°C to 8°C) for 128 days
  Working solution stability, RR: 109.6%
[9]; 0.1 mg/mL, refrigerator (1°C to 8°C) for 54 days
  Stock solution stability, RR: 54 days: 99.8%
[9]; 0.1 mg/mL, refrigerator (1°C to 8°C) for 129 days
  Stock solution stability, RR: 129 days: 89.1%
[10]; AUC0-last
  Dose proportionality test using power model, Inference: Nonlinear
  Dose proportionality test using power model, β: 0.604
[10]; Cmax
  Dose proportionality test using power model, Inference: Nonlinear
  Dose proportionality test using power model, β: 0.701
